Values quoted from earlier work, collected in US6132722A, “Recombinant antibody-enzyme fusion proteins” (Bristol-Myers Squibb Company, priority 1998, dated 2000).

Test system: 3677 melanoma xenografts
Details: drug alone, Kerr et al. 1995

SMILES: COc1cccc2c1C(=O)c1c(O)c3c(c(O)c1C2=O)C[C@@](O)(C(=O)CO)C[C@@H]3O[C@H]1C[C@H](N)[C@H](O)[C@H](C)O1 [doxorubicin]
- response of the 3677 tumor model to treatment: resistant
